The conditions of data set [1]: 96 kPa, Liquid; for viscosity: Cone and plate viscometry; for electrical conductivity: Frequency=0.001 MHz, Alternating current cell with electrodes.
Data set [2] is described as follows: xn = mol fraction of the nth substance listed. The note with it: 96 kPa, Liquid, Cone and plate viscometry, x2 = 0.

This note sets out measurements from the NIST ThermoML archive (doi:10.1016/j.jct.2019.04.017).

± gives the expanded uncertainty stated by the source.

As to `OCC(O)CO` [glycerol], the viscosity was found to be 2180 ± 380 mPa·s in data set [1] (288.1 K); 933.8 ± 110 mPa·s in data set [1] (298.1 K); 420.3 ± 39 mPa·s in data set [1] (308.1 K); 195.6 ± 15 mPa·s in data set [1] (318.1 K); 104.3 ± 7.3 mPa·s in data set [1] (328.1 K).

For the compound `C1CCC2=NCCCN2CC1` [1,8-diaza-7-bicyclo[5.4.0]undecene], the viscosity was 15.35 ± 1 mPa·s in data set [1] (288.1 K); 10.32 ± 0.67 mPa·s in data set [1] (298.1 K); 8.17 ± 0.53 mPa·s in data set [1] (308.1 K); 6.08 ± 0.39 mPa·s in data set [1] (318.1 K); 4.91 ± 0.32 mPa·s in data set [1] (328.1 K). The electrical conductivity in data set [1] (288.1 K) worked out at 0.000222 ± 8.8e-06 S/m; in data set [1] (293.1 K) it was 0.000241 ± 9.5e-06 S/m; in data set [1] (298.1 K), 0.000267 ± 1.1e-05 S/m; in data set [1] (303.1 K) it was 0.000297 ± 1.2e-05 S/m; in data set [1] (308.1 K), 0.00032 ± 1.3e-05 S/m; in data set [1] (313.1 K), 0.000356 ± 1.4e-05 S/m. Further, the results for the electrical conductivity in data set [1] (318.1 K), in data set [1] (323.1 K) and in data set [1] (328.1 K) were 0.000382 ± 1.5e-05 S/m, 0.000423 ± 1.7e-05 S/m and 0.000444 ± 1.8e-05 S/m, respectively.

For the compound `OCC(O)CO` [glycerol] + C1CCC2=NCCCN2CC1, the viscosity in data set [2] (288.1 K) worked out at 2180 ± 380 mPa·s; in data set [2] (298.1 K), 933.8 ± 110 mPa·s; in data set [2] (308.1 K) it was 420.3 ± 39 mPa·s; in data set [2] (318.1 K) it was 195.6 ± 15 mPa·s; in data set [2] (328.1 K), 104.3 ± 7.3 mPa·s.

As a reminder, the viscosity is the resistance of a fluid to flow.
